From the SangsterLogP compilation come the findings set out here.

The data set is described as follows: method code SF, from DOI: 10.1016/0378-5173(89)90136-1.

For orientation: logP means the decadic logarithm of the partition coefficient of the neutral form, usually between octanol and water. Low values mean a more hydrophilic compound, high ones a more lipophilic compound. With `O=C(OCCOCCOCCO)c1ccccc1`, the log partition coefficient (logP) amounted to 1.09.
In the case of `O=C(NCc1ccccc1O)c1ccccc1` it was 2.55.
As for `COCCOC(=O)c1ccccc1`, the logP was 1.78.
`O=C(OCCNC(=O)C(F)(F)F)c1ccccc1` had a lipophilicity (logP) of 2.25.
For the molecule `CCCCCCNC(=S)NC`, the lipophilicity (logP) was 2.31.
The molecule `O=C(OCCO)c1ccccc1` yielded a logP of 1.12.
In the case of `O=C(OC1C2C=CC1C=C2)c1ccccc1` (stereo not given) it was 3.03; in that of `CCNC(=O)CNC(=O)c1ccccc1`, 0.58.
As to `CCNC(=O)[C@@H](NC(=O)CNC(=O)c1ccccc1)C(C)C`, the lipophilicity (logP) is 1.05.
In the case of `O=[N+]([O-])c1ccc(OCCN2CCOCC2)cc1` it was 1.54.
